The text below walks through data of patent publication US20260060960A1, “GAMMA-SECRETASE INHIBITORS FOR USE IN THE TREATMENT OF INHERITED EPIDERMOLYSIS BULLOSA” (OSPEDALE PEDIATRICO BAMBINO GESU', priority 2022, published 2026).

Common to all, as to type: cell-based, human
The test system of test [1] is primary fibroblasts from RDEB patients (RDEB-FBs). As to the kind of experiment: Collagen lattice contraction (CLC) assay. The following applies: for cell contractility (collagen lattice contraction) / contractility (collagen lattice contraction): RDEB-FBs, 20 μM, 48 h; for contractility (collagen lattice contraction): presence of TGF-β1 2 ng/mL. The protocol: RDEB-FBs (5×10^5 cells) were mixed in a collagen buffer and seeded into 12-well plates as previously described. After gelation, fibroblast-populated collagen lattices were detached from the wells and left floating. RDEB-FBs were treated with 20 μM of DAPT and PF-03804014 in DMEM containing 0.1% BSA, in the presence or absence of TGF-β1 at 2 ng/mL, as contraction booster. JAG1-silenced RDEB-FBs were embedded in collagen lattices 24 h after siRNA transfection. In both cases, images were acquired with ChemiDoc™ XRS+ System (Bio-Rad, Hercules, CA, USA) at the detachment of collagen lattices from the wells (time 0, TO) and after 48 h. Gel areas were measured by ImageJ software and photos at TO were used as references.

Test [2] relates to TGF-β1 secreted by RDEB-FBs. As to the kind of experiment: TGF-β1 ELISA on conditioned media of RDEB fibroblasts. The conditions noted are these: 20 μM, 48 h; for acid-activated TGF-β1 in conditioned media: three RDEB-FB strains, mean±SD. The protocol:
Human TGF-β1 Quantikine ELISA Kit (R&D Systems, Minneapolis, MN, USA) was used to measure the amount of TGF-β1 (pg/mL) in serum-free conditioned media of three RDEB-FB strains, treated or not with PF-03084014 and DAPT at 1 or 20 μM for 48 h. DMSO-treated cells were used as controls. TGF-β1 Quantikine ELISA Kit was performed as per manufacturer's instructions. Samples were assayed in duplicate for each experimental condition. In order to detect both the latent precursor and the active form without latency-associated peptide cell supernatants were subjected to acid activation prior to be analyzed. Absorbance values were recorded at 455 nm with an Infinite F50 microplate reader (Tecan, Männedorf, Switzerland) and analyzed by employing the GraphPad Prism 8.2 version (GraphPad Software Inc., San Diego, CA, USA).
On the technique in general: In an ELISA, binding on a coated surface is turned into a signal by an enzyme label.

The test system of test [3] is NOTCH1 intracellular domain (N1-ICD). The test is described as follows: Immunoblotting of cleaved NOTCH1 (N1-ICD) in nuclear extracts of RDEB fibroblasts. The conditions noted are these: 24 h; for intranuclear levels of N1-ICD: RDEB-FBs, 5, 10 and 20 μM. From the text: 3-(4,5-dimethyl-2-thiazolyl)-2,5-diphenyl-2H-tetrazolium bromide (MTT) assay showing the impact of DAPT and PF-03084014 treatment on viability and proliferation rate of three primary fibroblast strains from healthy controls (NH-FBs). Absorbance values (Abs) were converted in percentage by using the following formula: AbsDAPT or PF-03084014×100/AbsREFERENCE WELLS. Data are presented as mean±standard deviation (SD) of at least eight technical replicates per condition. Cells treated with the vehicle DMSO (Panel A), and cells analyzed 24 h after seeding (T0) (Panel B) were considered as reference wells. NH-FBs were growth in DMEM medium containing 10% fetal bovine serum (FBS). […] Based on the results, it was chosen to use GSIs at 20 μM (black arrows) as it was the minimal drug concentration inducing a reduction of cell proliferation after 24 h of treatment. (Panel C) Immunoblotting analysis showing the protein levels of the cleaved and biologically active form of NOTCH1 receptor (N1-ICD, NOTCH1 intracellular domain) in nuclear extracts of primary fibroblasts from RDEB patients (RDEB-FBs, n=2) treated for 24 h with DAPT and PF-03084014 at different doses, ranging from 0.1 to 20 μM. Cells treated with the vehicle dimethyl sulfoxide (DMSO) were used as control. The reduced nuclear localization of N1-ICD indicates Notch pathway inhibition. […] Lamin B1 (LMNB1) and glyceraldehyde-3-phosphate dehydrogenase (GAPDH) served as loading controls for the nuclear and cytoplasmic protein fractions, respectively. **P-value <0.01, ***P<0.001.
RDEB-FBs were seeded on 100 mm cell culture dishes (8×10^5 cells/dish). Subconfluent cells were treated with different concentrations of PF-03084014 or DAPT for 24 h (FIG. 1—Panel C) or with 2 ng/mL of TGF-β1 for 6 h (FIG. 3D). DMSO-treated cells were used as controls. After cell harvesting with trypsin-EDTA, cytoplasmic and nuclear lysates were obtained using NE-PER™ Nuclear and Cytoplasmic Extraction Reagents kit (Thermo Fisher Scientific), following the manufacturer's instructions with slight modifications. […]

The subject of test [4] is primary fibroblasts from RDEB patients (RDEB-FBs). The test is described as follows: Type I collagen degradation assay. The following applies: presence of TGF-β1, PF-03084014 5 μM, DAPT 20 μM. The protocol:
The ability of RDEB-FBs to degrade a thin film of type I collagen (COL1) was assessed as previously described. Briefly, COL1 from calf hides (Symatese, Chaponost, France), was diluted at a concentration of 375 μg/ml in 13 mM hydrochloric acid. Diluted COL1 solution was rapidly mixed on ice with one quarter-volume of a neutralizing phosphate buffer (20 ml of 0.2 M NaH2PO4 pH 7.5, 20 ml 0.1 M NaOH, 4.15 ml 5 M NaCl) and gently dispensed into 24-well plates. COL1 gelation was obtained maintaining COL1-coated plates at 37° C. for 2 h. COL1 gels were dehydrated overnight in a laminar flow hood, washed with sterile water and PBS containing Penicillin/Streptomycin. Then, a droplet of complete medium containing 12.500 RDEB-FBs was gently poured in the center of the well, and cells were allowed to adhere in a humidified chamber for 3 h. […] At the end of the incubation period, RDEB-FBs were detached by trypsin/EDTA and counted to be sure to evaluate collagenolytic activity of the same number of cells per condition. The residual COL1 film was stained for 15 min with a solution of Coomassie Brilliant Blue R-250 Dye (Thermo Fisher Scientific), the excess of stain was removed with a destain solution (30% ethanol, 7.5% CH3COOH). Images were acquired with a 10× objective.

“Also recorded” adds a separate entry of the source.

On to `C[C@H](NC(=O)Cc1cc(F)cc(F)c1)C(=O)N[C@H](C(=O)OC(C)(C)C)c1ccccc1` [DAPT, N—[N-(3,5-difluorophenacetyl)-L-alanyl]-S-phenylglycine t-butyl ester], for which, in test [1] (absence of TGF-β1), the “cell contractility (collagen lattice contraction)” value was “didn't exhibit significant variations”. In test [1], the “contractility (collagen lattice contraction)” value was “significant, although less conspicuous”. Further, the “acid-activated TGF-β1 in conditioned media” value in test [2] is 250.4 ± 97.3 pg/mL. In test [3], the “intranuclear levels of N1-ICD” value is on record as “comparable impact on the intranuclear levels of N1-ICD”.

As to `CCC[C@H](N[C@H]1CCc2cc(F)cc(F)c2C1)C(=O)Nc1cn(C(C)(C)CNCC(C)(C)C)cn1` [PF-03084014, (S)-2-((S)-5,7-difluoro-1,2,3,4-tetrahydronaphthalen-3-ylamino)-N-(1-(2-methyl-1-(neopentylamino)propan-2-yl)-1H-imidazol-4-yl)pentanamide], in test [1] (RDEB-FB1, 20 μM, absence of TGF-β1), the “contractile properties (collagen lattice contraction) in strain RDEB-FB1” value is listed as “striking inhibition of contractile properties”. Further, in test [1] (absence of TGF-β1), the “cell contractility (collagen lattice contraction)” value is on record as “modest but consistent in all RDEB-FB strains analyzed”. Further, the “contractility (collagen lattice contraction)” value in test [1] was “marked reduction of contractility”. Also, the “reduction of TGF-β1 released in culture media” value in test [2] (vs cells treated with DMSO and DAPT) was “up to 60%”. Moreover, the “acid-activated TGF-β1 in conditioned media” value in test [2] is 99.6 ± 40.8 pg/mL. In addition, in test [3] (RDEB-FBs, 0.1, 0.5, 1 μM, compared with DAPT), the “nuclear N1-ICD protein levels (NOTCH1 cleavage and nuclear translocation)” value is “huge reduction; also recorded: greater ability of PF-03084014 in inhibiting NOTCH1 cleavage and its nuclear translocation”. Moreover, the “intranuclear levels of N1-ICD” value in test [3] is given as “comparable impact on the intranuclear levels of N1-ICD”. Besides, the “type I collagen degradation areas” value in test [4] is “increased number and size of collagen degradation areas”.
